The assay has as its target T1, human Cystic Fibrosis Transmembrane Conductance Regulator (CFTR) harboring the ΔF508 mutation (Homo sapiens, UniProt P13569, DEL508-508).
T1 construct: expressed in transfected cells; host or cells: H441 carcinoma line (G418 selection)
In words: H441 cell Emax and EC50: HRP-tagged ΔF508-CFTR cell surface luminescence assay. The conditions noted are these: H441 cells expressing ΔF508-CFTR-HRP, 27° C., two nights; for EC50: 15-point dose-response, top 24.5 μM; for Emax: NCI-H441, % of maximum VX809 signal. Format: cell-based. From the text:
Two cell lines were used, the H441 carcinoma line and the CFHBE41o-(41o-) human bronchial epithelial line. Both cell lines expressed human Cystic Fibrosis Transmembrane Conductance Regulator (CFTR) harboring the ΔF508 mutation and with an in-frame fusion in CFTR extracellular loop 4 of Horse Radish Peroxidase (HRP) under control of the CMV promoter. In the presence of the HRP tag, ΔF508-CFTR transported to the cell surface was detectable upon addition of an HRP substrate (Luminata Forte). Both cell types were cultivated at 37° C. with CO2.
For both cell types, the medium was changed every other day unless the culture was at low % confluence. Cells were used for the assays at ˜75% confluence.
To a polypropylene (PP) 384-well plate, 15 μls DMSO was added to all wells in columns 1-22 and 24 (low Control). 15 μls of 260 μM VX809 (Lumacaftor), Selleckchem S1565, was added to column 23 wells (high Control). 15 μls of 10 mM test compound or VX809 (control) were added to wells of row A. Serial dilutions of Row A compound were performed 2×15 μls in rows A through O (15-point).
A PP, 384-well plate containing the appropriate cell culture medium was prepared for each assay plate with 100 μls per well. For the doxycycline-induced 41o-cells, doxycycline for both the assay plate and the medium dilution plate was added at 0.0005 mg/ml to the medium.
Both cell lines were plated for the assay at 30 uls per 384-well at 3.4×10^e5 cells per ml (˜10K cells/well). H441 cells were plated on opaque, white, Corning plate 3704. 41o-cells were plated on collagen-coated opaque, white, Corning plate 356665. For 41o-cells, doxycycline was added to the medium.
Using FX (Beckman) protocol, 10 uls diluted compound or medium was added per well to the Assay Plate as: 2 μls DMSO Dilution plate well is diluted in 100 uls of the Medium Dilution Plate well, mixed, and 10 uls is transferred to the Assay Plate.
The final assay dilution series is 24.5, 12.3, 6.1, 3.1, 1.5, 0.8, 0.4, 0.2, 0.1, 0.05, 0.02, 0.01, 0.006, 0.003, 0.001 and 0 μM. The 41o-assay plates were incubated at 37° C. w/CO2, the H441 assay plates were incubated at 27° C. w/CO2, each overnight for two nights.
After being brought to room temperature, the assay plate liquid was removed. 30 μls of Luminata Forte (Millipore ELLUF0100) was added per well and incubated at room temperature for 10 min. The plates were then read on a Topcount, protocol LumiMatti (CPS, luminescence). The data was analyzed for % of maximum, maximum VX809 signal, and EC50 using Pearl and SPEED tools.

T1 sequence (P13569 with tags, fused parts or gaps DEL508-508): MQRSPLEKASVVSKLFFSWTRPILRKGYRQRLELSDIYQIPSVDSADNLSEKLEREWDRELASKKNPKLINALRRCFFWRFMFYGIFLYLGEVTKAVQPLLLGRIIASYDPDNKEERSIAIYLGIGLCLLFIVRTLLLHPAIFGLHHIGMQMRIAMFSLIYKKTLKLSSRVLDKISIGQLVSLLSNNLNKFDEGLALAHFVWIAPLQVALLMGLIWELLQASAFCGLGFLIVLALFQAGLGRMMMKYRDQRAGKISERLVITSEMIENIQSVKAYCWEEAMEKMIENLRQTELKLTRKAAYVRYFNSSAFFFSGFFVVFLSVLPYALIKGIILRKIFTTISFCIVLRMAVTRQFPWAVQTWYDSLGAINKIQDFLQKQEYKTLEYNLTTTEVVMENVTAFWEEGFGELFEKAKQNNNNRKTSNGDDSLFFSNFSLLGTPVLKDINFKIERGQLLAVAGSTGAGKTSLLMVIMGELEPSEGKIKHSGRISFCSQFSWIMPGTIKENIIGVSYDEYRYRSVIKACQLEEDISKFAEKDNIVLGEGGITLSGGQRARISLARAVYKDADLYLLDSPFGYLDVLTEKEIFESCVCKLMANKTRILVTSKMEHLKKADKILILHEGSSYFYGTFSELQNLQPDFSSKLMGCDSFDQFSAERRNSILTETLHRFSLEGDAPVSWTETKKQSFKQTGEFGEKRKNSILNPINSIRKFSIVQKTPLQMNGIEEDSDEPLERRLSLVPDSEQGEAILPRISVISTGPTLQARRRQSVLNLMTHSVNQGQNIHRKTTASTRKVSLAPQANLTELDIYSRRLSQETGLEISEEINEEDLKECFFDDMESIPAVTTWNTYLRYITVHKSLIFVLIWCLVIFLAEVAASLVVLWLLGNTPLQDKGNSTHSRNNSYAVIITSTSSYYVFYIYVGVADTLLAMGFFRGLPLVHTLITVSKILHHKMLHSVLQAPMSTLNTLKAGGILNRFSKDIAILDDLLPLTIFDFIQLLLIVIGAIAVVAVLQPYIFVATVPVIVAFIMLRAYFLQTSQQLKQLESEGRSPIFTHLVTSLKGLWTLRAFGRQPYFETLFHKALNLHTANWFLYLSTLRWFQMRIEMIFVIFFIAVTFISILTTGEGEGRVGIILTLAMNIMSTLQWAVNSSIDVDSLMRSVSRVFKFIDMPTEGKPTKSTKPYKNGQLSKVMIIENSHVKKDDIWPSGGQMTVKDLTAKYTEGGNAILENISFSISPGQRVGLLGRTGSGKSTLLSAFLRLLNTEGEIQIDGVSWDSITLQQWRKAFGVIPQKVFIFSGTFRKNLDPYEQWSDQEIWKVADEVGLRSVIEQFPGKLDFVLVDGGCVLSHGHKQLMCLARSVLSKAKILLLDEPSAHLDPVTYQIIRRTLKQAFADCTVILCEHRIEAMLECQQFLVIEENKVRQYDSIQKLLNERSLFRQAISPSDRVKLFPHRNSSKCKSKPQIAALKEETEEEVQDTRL

For `O=C(N[C@H](C(=O)O)C12CC3(Cl)CC(Cl)(CC(Cl)(C3)C1)C2)c1ccc2ccccc2c1NCc1ccc(SC(F)(F)F)cc1` [compound 127, (2S)-2-(3,5,7-trichloro-1-adamantyl)-2-[[1-[[4-(trifluoromethylsulfanyl)phenyl]methylamino]naphthalene-2-carbonyl]amino]acetic acid], the EC50 is 0.625 µM and the Emax came out at 75.5%. On the same counts, the results for `O=C(O)[C@@H](N1CN(Cc2ccc(C(F)(F)F)cc2)c2c(ccc3ccccc23)C1=O)C12CC3CC(CC(C3)C1)C2` [compound 125, (2S)-2-(1-adamantyl)-2-[4-oxo-1-[[4-(trifluoromethyl)phenyl]methyl]-2H-benzo[h]quinazolin-3-yl]acetic acid] are 0.109 µM and 66%. On the same counts, the results for `CC12CC3(C)CC(C)(C1)CC(C(NC(=O)c1ccc4ccccc4c1OCC1CCC(F)(F)CC1)C(=O)O)(C2)C3` (stereo not shown) [compound 90] are 1.01 µM and 165%. Taken in the same sequence, the figures for `Cc1ccc2c(c1C)N(Cc1ccc(C(F)(F)F)cc1)CN([C@H](C(=O)O)C13CC4CC(CC(C4)C1)C3)C2=O` [compound 136, (2S)-2-(1-adamantyl)-2-[7,8-dimethyl-4-oxo-1-[[4-(trifluoromethyl)phenyl]methyl]-2H-quinazolin-3-yl]acetic acid] were 1.58 µM and 17%. As for `O=C(N[C@H](C(=O)O)C12CC3CC(CC(O)(C3)C1)C2)c1ccc2ccccc2c1OCC1CCC(F)(F)CC1` [compound 53], the EC50 was found to be 7.22 µM and the Emax worked out at 74.1%.

Regarding `O=C(N[C@H](C(=O)O)C12CC3CC(CC(C3)C1)C2)c1ccc2occc2c1OCC1CCCCC1` [compound 116, (2S)-2-(1-adamantyl)-2-[[4-(cyclohexylmethoxy)benzofuran-5-carbonyl]amino]acetic acid], it took 1.77 µM to reach a half-maximal effect (EC50) and the Emax amounted to 212%.

As to `O=C(N[C@H](C(=O)O)C12CC3CC(CC(C3)C1)C2)c1ccc2ccccc2c1OCc1ccc(S(=O)(=O)C(F)(F)F)cc1` [compound 61], the EC50 came out at 0.446 µM and the Emax turned out to be 100%. On the same counts, the results for `O=C(N[C@H](C(=O)O)C12CC3CC(CC(C3)C1)C2)c1ccc2cccnc2c1OCc1ccc(OC(F)(F)F)cc1` [compound 84] are 0.66 µM and 149%.

On to `COCCOC12CC3CC(C1)CC([C@H](NC(=O)c1ccc4ccccc4c1OCc1ccc(C(F)(F)F)cc1)C(=O)O)(C3)C2` [compound 43], for which the EC50 came to 0.267 µM and the Emax was found to be 128%. On the same counts, the results for `O=C(N[C@H](C(=O)O)C12CC3CC(CC(C3)C1)C2)c1ccc2ccccc2c1OCc1ccc([N+](=O)[O-])cc1` [compound 73] are 1.32 µM and 118%. On the same counts, the results for `O=C(N[C@H](C(=O)O)C12CC3CC(CC(OCCO)(C3)C1)C2)c1ccc2ccccc2c1OCc1ccc(C(F)(F)F)cc1` [compound 20] are 0.78 µM and 144%.

On to `CS(=O)(=O)c1ccc(COc2c(C(=O)N[C@H](C(=O)O)C34CC5CC(CC(C5)C3)C4)ccc3ccccc23)cc1` [compound 58], for which it took 15.8 µM to reach a half-maximal effect (EC50) and the Emax was determined as 30.1%. On the same counts, the results for `O=C(N[C@H](C(=O)O)C12CC3CC(CC(O)(C3)C1)C2)c1ccc2ccccc2c1OCc1ccc(C(F)(F)F)cc1` [compound 17] are 0.903 µM and 156%. As to `O=C(N[C@H](C(=O)O)C12CC3CC(CC(O)(C3)C1)C2)c1ccc2cccnc2c1OCc1ccc(C(F)(F)F)cc1` [compound 22], a half-maximal effect (EC50) was put at 3.66 µM and the Emax is 175%. On to `O=C(N[C@H](C(=O)O)C12CC3CC(CC(C3)C1)C2)c1ccn2cccc2c1OCc1ccc(OC(F)(F)F)cc1` [compound 118, (2S)-2-(1-adamantyl)-2-[[8-[[4-(trifluoromethoxy)phenyl]methoxy]indolizine-7-carbonyl]amino]acetic acid; 2,2,2-trifluoroacetic acid], for which it took 0.28 µM to reach a half-maximal effect (EC50) and the Emax amounted to 141%. Taken in the same sequence, the figures for `O=C(N[C@H](C(=O)O)C12CC3CC(CC(C3)C1)C2)c1ccc2ccccc2c1OCC#CC1CC1` [compound 101, (2S)-2-(1-adamantyl)-2-[[1-(3-cyclopropylprop-2-ynoxy)naphthalene-2-carbonyl]amino]acetic acid] were 2.7 µM and 145%. Taken in the same sequence, the figures for `O=C(N[C@H](C(=O)O)C12CC3CC(CC(C3)C1)C2)c1ccc2ccccc2c1OCc1ccc(OC(F)(F)F)cc1` [compound 8] were 1.4 µM and 176%. Consider `CCOC12CC3CC(C1)CC([C@H](NC(=O)c1ccc4ccccc4c1OCc1ccc(C(F)(F)F)cc1)C(=O)O)(C3)C2` [compound 27], for which the EC50 amounted to 0.153 µM and the Emax was determined as 215%. On the same counts, the results for `O=C(N[C@H](C(=O)O)C12CC3CC(CC(O)(C3)C1)C2)c1ccc2ccccc2c1OCc1ccc(OC(F)(F)F)cc1` [compound 35] are 1.13 µM and 141%. For `O=C(N[C@H](C(=O)O)C12CC3CC(CC(OCC(F)(F)F)(C3)C1)C2)c1ccc2ccccc2c1OCc1ccc(C(F)(F)F)cc1` [compound 6], the EC50 came to 0.126 µM and the Emax is 233%. Taken in the same sequence, the figures for `O=C(N[C@H](C(=O)O)C12CC3CC(CC(O)(C3)C1)C2)c1ccc2ccccc2c1OCC1CCCCC1` [compound 30] were 1.45 µM and 96.8%.

Take `C[C@@H](OC12CC3CC(C1)CC([C@H](NC(=O)c1ccc4cc(F)ccc4c1OCc1ccc(C(F)(F)F)cc1)C(=O)O)(C3)C2)C(=O)O` [compound 36]: the Emax came out at 0.9%. Consider `O=C(NC(C(=O)O)C12CC3CC(CC(O)(C3)C1)C2)c1ccc2ccccc2c1OCc1ccc(C(F)(F)F)cc1` (stereo not shown) [compound 79], for which the midpoint of the response, the EC50, lay at 1.03 µM and the Emax worked out at 137%. On the same counts, the results for `CC12CC3(C)CC(C)(C1)CC(C(NC(=O)c1ccc4ccccc4c1OCc1ccc(C(F)(F)C(F)(F)F)cc1)C(=O)O)(C2)C3` (stereo not shown) [compound 76] are 0.212 µM and 196%. On to `CC(C)OC(=O)[C@@H](NC(=O)c1ccc2cccnc2c1OCc1ccc(C(F)(F)F)cc1)C12CC3CC(CC(C3)C1)C2` [compound 69], for which the EC50 is at least 24.5 µM and the Emax came to 28.9%.

For the molecule `O=C(N[C@H](C(=O)O)C12CC3CC(CC(C3)C1)C2)c1ccc2ccccc2c1OCc1nc(C(F)(F)F)cs1` [compound 100, (2S)-2-(1-adamantyl)-2-[[1-[[4-(trifluoromethyl)thiazol-2-yl]methoxy]naphthalene-2-carbonyl]amino]acetic acid], the 50% effective concentration (EC50) was 2.88 µM and the Emax was 55.8%. Regarding `O=C(N[C@H](C(=O)O)C12CC3CC(CC(C3)C1)C2)c1ccc2cc(F)ccc2c1OCc1ccc(OC(F)(F)F)cc1` [compound 88], the Emax was -9.7%. In the case of `O=C(N[C@H](C(=O)O)C12CC3CC(CC(C3)C1)C2)c1sc2cc(Cl)ccc2c1OCc1ccc(C(F)(F)F)cc1` [compound 32], the response was half-maximal at 0.396 µM (EC50) and the Emax was found to be 105%.

Take `O=C(N[C@H](C(=O)O)C12CC3CC(CC(C3)C1)C2)c1ccc2sccc2c1OCC1CCC(F)(F)CC1` [compound 106, (2S)-2-(1-adamantyl)-2-[[4-[(4,4-difluorocyclohexyl)methoxy]benzothiophene-5-carbonyl]amino]acetic acid]: a half-maximal response (EC50) required 3.62 µM and the Emax came out at 156%. Take `CC12CC3(C)CC(C)(C1)CC([C@H](NC(=O)c1ccc4cccnc4c1OCc1ccc(C(F)(F)F)cc1)C(=O)O)(C2)C3` [compound 62]: the EC50 was 0.245 µM and the Emax worked out at 217%. `NC12CC3CC(C1)CC([C@H](NC(=O)c1ccc4ccccc4c1OCc1ccc(C(F)(F)F)cc1)C(=O)O)(C3)C2` [compound 92]: the Emax is -1.3%.

With `COc1ccc2c(OCc3ccc(SC(F)(F)F)cc3)c(C(=O)N[C@H](C(=O)O)C34CC5CC(CC(C5)C3)C4)ccc2c1` [compound 83], the EC50 worked out at 0.947 µM and the Emax came out at 16.4%.

A word on the EC50: it is the concentration that produces a half-maximal response. A high value points to a need for much substance. The term Emax denotes the maximal effect, on the per cent scale that the assay sets.

For the origin of these results see patent publication US12637414B2, “Arylamides and methods of use thereof” (Genzyme Corporation, priority 2019, dated 2026).
